# Earlier results as cited in PMC7211195 (Investigational New Drugs, 2019).
# Read-outs that look alike come from different tables or passages of the source.
# Assays:
# [1] = in rats, cited from earlier work
# [2] = cited from earlier work
# [3] = parameters: method as in PMID 19276246; conditions: cited from earlier work; for increase in concentration in the brain: abcb1a/1b;abcg2(−/−) mice
# [4] = parameters: method as in PMID 24113148; conditions: cited from earlier work
smiles,measurement,setting,value
"COc1cc2c(cc1OC)CN(CCc1ccc(NC(=O)c3cccc4c(=O)c5cccc(OC)c5[nH]c34)cc1)CC2 [Elacridar, 9,10-dihydro-5-methoxy-9-oxo-N-[4-[2-(1,2,3,4-tetrahydro-6,7-dimethoxy-2-isoquinolinyl)ethyl]phenyl]-4-acridine-carboxamide]",bound to plasma proteins,[1]; ref 16,98.1 ± 1.7%
same,bound to plasma proteins,[1]; ref 30,99.0 ± 0.6%
C[C@@H](Oc1cc(-c2cnn(C3CCNCC3)c2)cnc1N)c1c(Cl)ccc(F)c1Cl [crizotinib],"brain accumulation after 24 h, times greater","[2]; 5 mg/kg b.w., knockout vs WT mice",approximately 40 times
same,higher BP exposure than WT mice,"[2]; abcb1a/1b(−/−) and abcb1a/1b;abcg2(−/−) mice, 5 mg/kg b.w.",approximately 2 times
same,"brain accumulation, times greater than in WT mice","[2]; abcb1a/1b(−/−) mice, dose increased ten-fold",approximately 70 times
Cc1nc(Nc2ncc(C(=O)Nc3c(C)cccc3Cl)s2)cc(N2CCN(CCO)CC2)n1 [dasatinib],brain-to-plasma ratio increase with elacridar,[3]; WT mice,4.4 times
same,increase in concentration in the brain,[3]; intraperitoneal administration,22.7 times
same,increase in concentration in the brain,[3]; oral administration,13.2 times
CCN(CC)CCNC(=O)c1c(C)[nH]c(/C=C2\C(=O)Nc3ccc(F)cc32)c1C [sunitinib],DTIBT,[4]; bcrp1(−/−) mice,2.1
same,DTIBT,[4]; mdr1a/b(−/−) mice,3.9
same,DTIBT,[4]; mice with both knockout genes,48.9
